pIC50: −log10 of the molar value. Counter-ions that a name gives are not always drawn. Like-named read-outs stand apart in the source and are kept apart here.
Assays:
Panc-1 = test: Cell viability assay (resazurin, 96 hr) in Panc-1; format: cell-based; settings: Homo sapiens; Panc-1 pancreatic cell line, 96 hr exposure; read-out: Panc-1_Cell Viability_IC50
Description: (§1) Cell Viability Assay in MIA PaCa-2 and Panc-1
(§2) MIA PaCa-2 (ATCC® CRL-1420™) and Panc-1 (CRL-1469™), both pancreatic cell lines were seeded in their respective medium (DMEM, Cat #10569044 with 10% FBS, Cat #16000044; Gibco for Panc-1 and an additional 2.5% Horse Serum, Cat #16050122; Gibco for MIA PaCa-2) at a cell count of 3000 cells per 100 μl per well in a 96 well edge plate (167425; ThermoFisher). Cells were allowed to grow at 37° C. for 24 hr in 5% CO2 (culture conditions) in a Nuaire incubator (humidified). Serially diluted compounds (100 μl) were added to the culture plate 24 hr later and the cultures (MIA PaCa-2 and Panc-1) were further incubated in culture conditions for 96 hr. Experiment was terminated at the completion of 96 hr exposure to the drug by replacing the medium with 100 μl of 1 mM of resazurin (R7017; Sigma) prepared in culture medium and the plates were further incubated in culture conditions for 4 hr. Fluorescence was then measured using a multimodal plate reader (Biotek Synergy Neo) at an excitation wavelength of 535 nm and emission wavelength of 590 nm to obtain relative fluorescence units. Data analysis was done by subtracting the background fluorescence (only medium blank) value from each reading and then normalizing with the vehicle control (DMSO treated cells) to obtain percent survival/proliferation. Percent survival at different doses was used to calculate IC50 by fitting the curve to the “four-parameter variable slope logistic model” using Prism Graph Pad.

TGFBR1 (ALK5) = molecular target: T1, TGFBR1 (ALK5) (Homo sapiens, UniProt P36897); test: ALK5 kinase assay (LanthaScreen Terbium labeled TR-FRET); format: biochemical
T1 sequence (P36897 34-503): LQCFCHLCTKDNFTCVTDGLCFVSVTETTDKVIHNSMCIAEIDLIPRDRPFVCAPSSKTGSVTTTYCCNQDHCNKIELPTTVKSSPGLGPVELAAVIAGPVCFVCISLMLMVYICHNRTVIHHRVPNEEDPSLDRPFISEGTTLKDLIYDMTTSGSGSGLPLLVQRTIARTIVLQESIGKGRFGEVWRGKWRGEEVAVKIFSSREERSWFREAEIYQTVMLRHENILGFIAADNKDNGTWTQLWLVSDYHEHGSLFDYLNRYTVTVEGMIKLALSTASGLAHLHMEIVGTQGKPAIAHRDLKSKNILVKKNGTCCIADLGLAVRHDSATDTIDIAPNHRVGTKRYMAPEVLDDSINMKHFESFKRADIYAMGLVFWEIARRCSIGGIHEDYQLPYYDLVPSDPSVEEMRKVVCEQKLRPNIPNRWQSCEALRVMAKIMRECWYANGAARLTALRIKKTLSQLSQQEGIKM
Description: ALK5 Kinase Assay for IC50 Determination:
IC50 values of compounds against TGFβ kinase was determined by LanthaScreen™ Terbium Labeled TR-FRET assay. Kinase assays were performed in IX kinase buffer (# PV6135, Invitrogen, Life Technologies Grand Island, N.Y.) where total reaction volume was 10 μL in low-volume 384-well plates (#4511,Corning). Serially diluted compounds (3-fold) were incubated with TGFβ kinase (6 nM) for 10 min, following which a mixture of ATP (10 μM) (# A1852, Sigma, St-Louis, Mo.) and fluorescent-PolyGT substrate (200 nM) (# PV3610, Invitrogen, Life Technologies Grand Island, N.Y.) was added and incubated in dark at room temperature for 1 h. After 1 h, 10 μL stop solution containing Terbium labeled antibody (4 nM) (# PV3529, Invitrogen, Life Technologies Grand Island, N.Y.) and EDTA (# E5134, Sigma, St-Louis, Mo.) (20 mM) in TR-FRET dilution buffer (# PV3574, Invitrogen, Life Technologies Grand Island, N.Y.) was added. Readings were taken in a Synergy Neo Plate reader (BioTek, Winooski) at single excitation of 340 nm and Dual emission at 495 nm and 520 nm respectively.
The % activity of test samples was calculated as (Sample−Min)×100/(Max−Min). [Max: DMSO control, complete reaction with enzyme with DMSO and Min: No enzyme with DMSO]. Percent inhibition (100-% activity) was fitted to the “four-parameter logistic model” in XLfit for determination of IC50 values.

MAPK14/p38α kinase = molecular target: T2, MAPK14/p38α kinase (Homo sapiens, UniProt Q16539); test: MAPK14/p38α kinase assay (LanthaScreen TR-FRET); format: biochemical; settings: for inhibition at 0.1 µM: 100 nM concentration of compound
T2 construct: purchased ThermoFisher PV3304
T2 sequence (Q16539 whole entry): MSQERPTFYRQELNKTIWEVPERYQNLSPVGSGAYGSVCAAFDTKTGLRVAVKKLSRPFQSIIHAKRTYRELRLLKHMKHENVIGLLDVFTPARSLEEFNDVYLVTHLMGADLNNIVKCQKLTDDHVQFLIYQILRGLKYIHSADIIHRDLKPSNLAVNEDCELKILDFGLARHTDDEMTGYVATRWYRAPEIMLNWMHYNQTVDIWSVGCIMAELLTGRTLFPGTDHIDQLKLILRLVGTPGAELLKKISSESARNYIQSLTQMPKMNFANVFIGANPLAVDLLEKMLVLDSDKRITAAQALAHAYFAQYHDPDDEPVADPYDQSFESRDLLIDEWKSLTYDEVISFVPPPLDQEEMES
Description: MAPK14/p38α Kinase Assay for IC50 Determination:
IC50 values of compounds against MAPK14/P38α kinase were determined by Lanthascreen based TR-FRET assay. Kinase reactions were performed in a 10 μL volume in low-volume 384-well plates. The concentration of substrate was maintained at 400 nM in the assay, and the kinase reaction buffer (1×; Cat # PV3189, ThermoFisher) consisted of 50 mM HEPES pH 7.5, 0.01% BRIJ-35, 10 mM MgCl2, and 1 mM EGTA. Serially diluted compounds (3-fold) in DMSO (0.5% in final reaction) were incubated with cocktail of MAPK14/p38α kinase (20 ng/ml; Cat # PV3304, ThermoFisher), Substrate GFP-ATF2 (19-96), (0.4 μM; Cat # PV4445, ThermoFisher), ATP (90 μM; Cat # PV3227, ThermoFisher) and buffer. Kinase reactions were allowed to proceed for 1 hour at room temperature before EDTA (10 mM; Cat # P2825, ThermoFisher) and LanthaScreen™ Tb-antipATF2 (pThr71) Antibody (2 nM; Cat # PV4451, ThermoFisher) in TR-FRET dilution buffer (IX; Cat # PV3574, ThermoFisher) were added. The plate was allowed to incubate at room temperature for 30 minutes before being read on a BMG Pherastar plate reader using the LanthaScreen™ filter block for LanthaScreen™ TR-FRET.
The resulting TR-FRET emission ratio was plotted against the concentration of inhibitor, and the data was fit to a sigmoidal dose-response curve with a variable slope. The IC50 for the inhibitor was calculated from the curve.

MIA PaCa-2 = test: Cell viability assay (resazurin, 96 hr) in MIA PaCa-2; format: cell-based; settings: Homo sapiens; MIA PaCa-2 pancreatic cell line, 96 hr exposure; read-out: MiaPaCa-2_Cell Viability_IC50
Description: as §1, §2

[1] = Table 4, read-out: Enzyme Activity MAPK14 (p38alpha) % Inh at 100 nM

| Compound | pIC50 (Panc-1) | pIC50 (TGFBR1 (ALK5); Table 3, read-out: IC50 (ALK5)) | pIC50 (MAPK14/p38α kinase; Table 3, read-out: IC50 (P38 alpha)) | pIC50 (MIA PaCa-2) | pIC50 (TGFBR1 (ALK5); Table 4, read-out: ALK5 IC50) | inhibition at 0.1 µM (MAPK14/p38α kinase; [1]) | inhibition at 0.1 µM (TGFBR1 (ALK5); 100 nM concentration of compound, read-out: Enzyme Activity TGFBR1 (ALK5) % Inhibition at 100 nM) | inhibition at 0.1 µM (MAPK14/p38α kinase; read-out: Enzyme Activity MAPK14 (p38 alpha) % Inhibition at 100 nM) | pIC50 (TGFBR1 (ALK5); Table 5, read-out: ALK5 IC50) |
| --- | --- | --- | --- | --- | --- | --- | --- | --- | --- |
| CNC(=O)C(=O)c1c[nH]c2nccc(Nc3nc(-c4cc(Cl)ccc4F)ncc3C(C)C)c12 [Compound No. 18, 2-(4-((2-(5-chloro-2-fluorophenyl)-5-isopropylpyrimidin-4-yl)amino)-1H-pyrrolo[2,3-b]pyridin-3-yl)-N-methyl-2-oxoacetamide hydrochloride] | < 4.52 | < 5.30 | 6.46 | < 4.52 | – | – | – | – | – |
| CC(C)c1cnc(-c2ccc(F)cc2)nc1Nc1ccnc2[nH]cc(N3CCC(C(N)=O)CC3)c12 [Compound No. 12, 1-(4-((2-(4-fluorophenyl)-5-isopropylpyrimidin-4-yl)amino)-1H-pyrrolo[2,3-b]pyridin-3-yl)piperidine-4-carboxamide formic acid] | 5.59 | – | – | 5.75 | 5.93 | 37% | – | – | – |
| CC(C)c1cnc(-c2ccc(F)cc2)nc1Nc1ccnc2[nH]cc(N3CCN(C)CC3)c12 [Compound No. 2, N-(2-(4-fluorophenyl)-5-isopropylpyrimidin-4-yl)-3-(4-methylpiperazin-1-yl)-1H-pyrrolo [2,3-b] pyridin-4-amine hydrochloride] | 5.66 | – | – | 5.11 | – | – | 84% | 19% | – |
| CC(C)c1cnc(-c2ccc(F)cc2)nc1Nc1ccnc2[nH]cc(N3CCOCC3C)c12 (stereo not shown) [Compound No. 14, N-(2-(4-fluorophenyl)-5-isopropylpyrimidin-4-yl)-3-(3-methylmorpholino)-1H-pyrrolo [2,3-b] pyridin-4-amine hydrochloride] | 4.95 | – | – | 4.96 | – | – | – | – | 5.43 |
| CC(C)c1cnc(-c2ccc(F)cc2)nc1Nc1cccc2[nH]cc(C(=O)C(N)=O)c12 [Compound No. 28, 2-(4-(2-(4-fluorophenyl)-5-isopropylpyrimidin-4-ylamino)-1H-indol-3-yl)-2-oxoacetamide hydrochloride] | < 4.52 | – | – | < 4.52 | < 5.30 | 21% | – | – | – |
| CC(C)c1cnc(-c2ccc(F)cc2)nc1Nc1ccnc2[nH]cc(C(=O)C(=O)N3CCN(C)CC3)c12 [Compound No. 24, 1-(4-(2-(4-fluorophenyl)-5-isopropylpyrimidin-4-ylamino)-1H-pyrrolo [2,3-b]pyridin-3-yl)-2-(4-methylpiperazin-1-yl) ethane-1,2-dione hydrochloride] | < 4.52 | – | – | 6.11 | – | – | – | – | 5.82 |
| CC(C)c1cnc(-c2ccc(F)cc2)nc1Nc1ccnc2[nH]cc(C(=O)C(=O)N(C)C)c12 [Compound No. 16, 2-(4-((2-(4-fluorophenyl)-5-isopropylpyrimidin-4-yl)amino)-1H-pyrrolo[2,3-b]pyridin-3-yl)-N,N-dimethyl-2-oxoacetamide] | 4.77 | – | – | 4.99 | – | – | – | – | 5.72 |
| CNC(=O)C(=O)c1c[nH]c2nccc(Nc3nc(-c4ccc(F)cc4)ncc3C(C)C)c12 [Compound No. 29, 2-(4-((2-(4-fluorophenyl)-5-isopropylpyrimidin-4-yl)amino)-1H-pyrrolo[2,3-b]pyridin-3-yl)-N-methyl-2-oxoacetamide hydrochloride] | 4.59 | – | – | 4.64 | – | – | – | – | 5.56 |
| CCCCNC(=O)C(=O)c1c[nH]c2nccc(Nc3nc(-c4ccc(F)cc4)ncc3C(C)C)c12 [Compound No. 20, N-butyl-2-(4-(2-(4-fluorophenyl)-5-isopropylpyrimidin-4-ylamino)-1H-pyrrolo [2,3-b]pyridin-3-yl)-2-oxoacetamide hydrochloride] | < 4.52 | – | – | < 4.52 | – | – | – | – | < 5.30 |
| CC(C)c1cnc(-c2ccc(F)cc2)nc1Nc1ccnc2[nH]cc(C3(O)CCNCC3)c12 [Compound No. 13, 4-(4-((2-(4-fluorophenyl)-5-isopropylpyrimidin-4-yl)amino)-1H-pyrrolo[2,3-b]pyridin-3-yl)piperidin-4-ol hydrochloride] | 4.75 | – | – | 4.96 | – | – | – | – | 6.97 |
| COc1ccc(-c2ncc(C(C)C)c(Nc3ccnc4[nH]cc(C(=O)C(N)=O)c34)n2)cc1 [Compound No. 25, 2-(4-((5-isopropyl-2-(4-methoxyphenyl)pyrimidin-4-yl)amino)-1H-pyrrolo[2,3-b]pyridin-3-yl)-2-oxoacetamide hydrochloride] | < 4.52 | – | – | < 4.52 | – | – | – | – | 5.59 |
| CNC(=O)C(=O)c1c[nH]c2nccc(Nc3cc(-c4ccc(F)cc4)ncc3C(C)C)c12 [Compound No. 21, 2-(4-((2-(4-fluorophenyl)-5-isopropylpyridin-4-yl)amino)-1H-pyrrolo[2,3-b]pyridin-3-yl)-N-methyl-2-oxoacetamide hydrochloride] | 4.90 | – | – | 4.97 | – | – | – | – | 6.24 |
| CC(C)c1cnc(-c2ccc(F)cc2)nc1Nc1ccnc2[nH]cc(C(=O)C(=O)N3CCOCC3)c12 [Compound No. 22, 1-(4-(2-(4-fluorophenyl)-5-isopropylpyrimidin-4-ylamino)-1H-pyrrolo [2,3-b]pyridin-3-yl)-2-morpholinoethane-1,2-dione hydrochloride] | 4.85 | – | – | < 4.52 | – | – | – | – | 5.40 |
| CC(C)c1cnc(-c2ccc(F)cc2)nc1Nc1ccnc2[nH]cc(N3CCC(N)CC3)c12 [Compound No. 15, 3-(4-aminopiperidin-1-yl)-N-(2-(4-fluorophenyl)-5-isopropylpyrimidin-4-yl)-1H-pyrrolo[2,3-b]pyridin-4-amine hydrochloride] | 5.53 | – | – | 5.26 | – | – | – | – | 6.61 |

Reference: patent US20200171030A1, “DUAL INHIBITORS OF ALK5 AND P38A MAP KINASE” (INTEGRAL BIOSCIENCES PRIVATE LIMITED, priority 2018, published 2020)
